Values quoted from earlier work as cited in patent US20110034521A1, “COMPOUNDS AND METHODS FOR TREATING ZINC MATRIX METALLOPROTEASE DEPENDENT DISEASES” (priority 2007, published 2011).

Tests used:
[1] = Wojtowwicz-Praga et al. 1997
[2] = Sparano et al. 2004

Row | SMILES | water solubility [1] | toxicity [2]
1 | CNC(=O)[C@H](Cc1ccccc1)NC(=O)[C@H](CC(C)C)[C@H](CSc1cccs1)C(=O)NO [Batismastat] | poor water solubility | –
2 | CNC(=O)[C@@H](NC(=O)[C@H](CC(C)C)[C@H](O)C(=O)NO)C(C)(C)C [Marimastat] | – | musculoskeletal toxicity
